The compounds below were run against T1, acetylcholine muscarinic M1 receptor (Homo sapiens, UniProt P11229) (assay: muscarinic FLIPR assay: potentiation of acetylcholine (EC20)-stimulated intracellular Ca2+ in CHOnfat/hM1 cells). Details: 4 min preincubation, then EC20 acetylcholine (3 nM final), read-out: IP Value (inflection point).
T1 construct: expressed in transfected cells; host or cells: CHOnfat (CHO cells; also called CHOK1/hM1)
T1 sequence (P11229 1-460): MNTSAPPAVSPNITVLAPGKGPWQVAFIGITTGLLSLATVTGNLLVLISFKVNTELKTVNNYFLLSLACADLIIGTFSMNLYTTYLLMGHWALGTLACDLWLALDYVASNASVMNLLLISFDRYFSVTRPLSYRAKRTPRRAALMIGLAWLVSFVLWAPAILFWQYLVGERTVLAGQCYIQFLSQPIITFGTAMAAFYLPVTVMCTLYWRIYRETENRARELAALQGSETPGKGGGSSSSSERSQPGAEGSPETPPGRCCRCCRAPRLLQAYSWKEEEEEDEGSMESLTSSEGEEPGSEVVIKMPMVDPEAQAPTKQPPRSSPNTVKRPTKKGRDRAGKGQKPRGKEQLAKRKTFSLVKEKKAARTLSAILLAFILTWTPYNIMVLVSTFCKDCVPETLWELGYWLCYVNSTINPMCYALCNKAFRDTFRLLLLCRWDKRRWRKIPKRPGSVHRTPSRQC
Assay type: cell-based
Method: The assay studies the effect of one or several concentrations of test compounds on basal or acetylcholine-stimulated Ca^2+ levels using FLIPR.
Compounds are prepared and subjected to a preincubation period of 4 min. Thereafter, a single EC20 concentration of acetylcholine is added to each well (3 nM final). The intracellular Ca^2+ level of each sample is measured and compared to an acetylcholine control to determine any modulatory activity
Cells: CHOnfat/hM1, hM2, hM3 or hM4 cells are plated 24 hr before the assay at a density of 18,000 cells/well (100 μL) in a 384 well plate. CHOnfat/hM1 and CHOnfat/hM3 Growth Medium: 90% DMEM (Hi Glucose); 10% HI FBS; 2 mM L-glutamine; 0.1 mM NEAA; Pen-Strep; and 1 mg/ml Geneticin, are added. For M2Gqi5CHOnfat and M4Gqi5CHOnfat cells, an additional 600 ug/ml hygromycin is added.
Equipment: 384 well plate, 120 μL addition plate; 96-well Whatman 2 ml Uniplate Incubator, 37° C., 5% CO2; Skatron EMBLA-384 Plate Washer; Multimek Pipetting System; Genesis Freedom 200 System; Mosquito System; Temo Nanolitre Pipetting System; and FLIPR^384 Fluorometric Imaging Plate Reader System are used.
Buffers. Assay Buffer: Hanks Balanced Salt Solution, with 20 mM Hepes, 2.5 mM Probenecid (Sigma P-8761) first dissolved in 1 N NaOH, 1% Bovine Serum Albumin (Sigma A-9647). Dye Loading Buffer: Assay Buffer plus 1% Fetal Bovine Serum and Fluo-4AM/Pluronic Acid Mixture. 2 mM Fluo-4AM ester stock in DMSO (Molecular Probes F-14202) Concentration of 2 μM in buffer for a final concentration of 1 μM in Assay. 20% Pluronic Acid Solution stock, with concentration of 0.04% in Buffer, 0.02% in Assay.
65 μL of 2 mM Fluo-4AM are mixed with 130 μL of 20% Pluronic Acid. The resulting solution and 650 μL FBS is added to the assay buffer for a total volume of 65 mL. Positive Controls; 4-Br-A23187: 10 mM in DMSO; final concentration 10 μM. Acetylcholine: 10 mM in water, working stock at both 20 μM and 30 μM in assay buffer, final concentration of 10 μM. This is used to check the maximum stimulation of the CHOK1/hM1 cells. 20 μM (2×) acetylcholine is added in the preincubation part of the assay, and the 30 μM (3×) stock is added in the second part. (EC20)Acetylcholine; 10 mM in water, working stock of 9 nM (3×), and final concentration in assay is 3 nM. This is used after the preincubation with test compounds. Addition of the EC20 Acetylcholine to each well with a test compound will ascertain any modulator activity. 24 wells contain 3 nM Acetylcholine alone as a control.
Screening Plate: Compounds are titrated in 96-well plates (columns 2-11), 100% DMSO, started at a concentration of 15 mM (150× stock concentration), and 3-fold serial dilutions using Genesis Freedom 200 System. Four 96-well plates are combined into a 384-well plate using Mosquito Nanolitre Pipetting System by transferring 1 μl of serial diluted compounds to each well, and 1 mM acetylcholine (100× stock concentration) were added as a control. Using Temo, 49 μl assay buffer is added to each well of the 384-well plate right before assay.
In a 96-well Whatman 2 ml Uniplate, 9 nM Acetylcholine (3×) is pipetted into wells corresponding to the screening compounds, and into control wells. The 30 μM acetylcholine control (3×) is added into control wells, and the 3× agonist plate is transferred into a 384 well plate.
Cells are washed three times with 100 μL of buffer, leaving 30 μL of buffer in each well. Using Multimek, 30 μL of Dye Loading Buffer is added into each well and incubated at 37° C., 5% CO2 for up to one hr.
After 60 min, the cells are washed three times with 100 μL of buffer, leaving 30 μL of buffer in each well. The cell plate, screening plate, and agonist addition plates are placed on the platform in the FLIPR and the door closed. A signal test to check background fluorescence and basal fluorescence signal is performed. Laser intensity is adjusted if necessary. […]

| Structure (SMILES) | EC50 [nM] |
| --- | --- |
| Cc1ccc(-c2ccc(Cn3nc4c(=O)n(C5CCCOC5)nc-4c4cccnc43)cc2)cn1 (racemic) [Example 11, (±)-5-{[4-(6-Methylpyridin-3-yl)phenyl]methyl}-2-(tetrahydro-2H-pyran-3-yl)-2,5-dihydro-3H-pyrazolo[4,3-c]pyrido[3,2-e]pyridazin-3-one] | 370 |
| Cc1cncc(-c2ccc(Cn3nc4c(=O)n(C5CCCOC5)nc-4c4cccnc43)cc2)c1 (stereo not shown) [Example 13] | 578 |
| Cc1ccc(-c2ccc(Cn3nc4c(=O)n(C5CCCOC5)nc-4c4cccnc43)cn2)cn1 (racemic) [Example 9, (±)-5-[(6′-Methyl-2,3′-bipyridin-5-yl)methyl]-2-(tetrahydro-2H-pyran-3-yl)-2,5-dihydro-3H-pyrazolo[4,3-c]pyrido[3,2-e]pyridazin-3-one] | 1160 |
| Cc1cccc(-n2nc3c4cccnc4n(Cc4ccc(Cl)nc4)nc-3c2=O)c1C [Example 4, 5-[(6-Chloropyridin-3-yl)methyl]-2-(2,3-dimethylphenyl)-2,5-dihydro-3H-pyrazolo[4,3-c]pyrido[3,2-e]pyridazin-3-one] | 366 |
| Cc1cccc(-n2nc3c4cccnc4n(Cc4ccc(-c5cnn(C)c5)nc4)nc-3c2=O)c1C [Example 1, 2-(2,3-Dimethylphenyl)-5-{[6-(1-methyl-1H-pyrazol-4-yl)pyridin-3-yl]methyl}-2,5-dihydro-3H-pyrazolo[4,3-c]pyrido[3,2-e]pyridazin-3-one] | 58 |
| O=c1c2nn(Cc3ccc(-n4cccn4)cc3)c3ncccc3c-2nn1C1CCCOC1 (racemic) [Example 10, (±)-5-{[4-(1H-Pyrazol-1-yl)phenyl]methyl}-2-(tetrahydro-2H-pyran-3-yl)-2,5-dihydro-3H-pyrazolo[4,3-c]pyrido[3,2-e]pyridazin-3-one] | 438 |
| Cc1ccc(-c2ccc(Cn3nc4c(=O)n(-c5cccc(C)c5C)nc-4c4cccnc43)cn2)cn1 [Example 5, 2-(2,3-Dimethylphenyl)-5-[(6′-methyl-2,3′-bipyridin-5-yl)methyl]-2,5-dihydro-3H-pyrazolo[4,3-c]pyrido[3,2-e]pyridazin-3-one] | 109 |
| Cc1ccc(-c2ccc(Cn3nc4c(=O)n(-c5cccc(C)c5F)nc-4c4cccnc43)cn2)cn1 [Example 6, 2-(2-Fluoro-3-methylphenyl)-5-[(6′-methyl-2,3′-bipyridin-5-yl)methyl]-2,5-dihydro-3H-pyrazolo[4,3-c]pyrido[3,2-e]pyridazin-3-one] | 36 |
| Cc1ccc(-c2ccc(Cn3nc4c(=O)n([C@@H]5CCCC[C@H]5O)nc-4c4cccnc43)cn2)cn1 (racemic) [Example 8, (±)-2-(trans-2-Hydroxycyclohexyl)-5-[(6′-methyl-2,3′-bipyridin-5-yl)methyl]-2,5-dihydro-3H-pyrazolo[4,3-c]pyrido[3,2-e]pyridazin-3-one] | 140 |

Second part, the compound after the results:

| EC50 [nM] | Structure (SMILES) |
| --- | --- |
| 48 | Cc1ccccc1-n1nc2c3sccc3n(Cc3ccc(-n4cccn4)cc3)nc-2c1=O [Example 33, 2-(2-Methylphenyl)-5-{[4-(1H-pyrazol-1-yl)phenyl]methyl}-2,5-dihydro-3H-pyrazolo[4,3-c]thieno[2,3-e]pyridazin-3-one] |
| 120 | Cc1cc(-c2ccc(Cn3nc4c(=O)n(C5CCCOC5)nc-4c4sccc43)cc2)ccn1 (racemic) [Example 39, (±)-5-{[4-(2-Methylpyridin-4-yl)phenyl]methyl}-2-(tetrahydro-2H-pyran-3-yl)-2,5-dihydro-3H-pyrazolo[4,3-c]thieno[2,3-e]pyridazin-3-one] |
| 295 | O=c1c2nn(Cc3ccc(-c4cscn4)cc3)c3ncccc3c-2nn1C1CCCOC1 (racemic) [Example 31, (±)-2-(Tetrahydro-2H-pyran-3-yl)-5-{[4-(1,3-thiazol-4-yl)phenyl]methyl}-2,5-dihydro-3H-pyrazolo[4,3-c]pyrido[3,2-e]pyridazin-3-one] |
| 33 | Cc1c(-n2nc3c4sccc4n(Cc4ccc(-n5cccn5)cc4)nc-3c2=O)ccnc1F [Example 34] |
| 183 | Cc1ccc(-c2ccc(Cn3nc4c(=O)n(C5CCCOC5)nc-4c4sccc43)cc2)cn1 (racemic) [Example 38, (±)-5-{[4-(6-Methylpyridin-3-yl)phenyl]methyl}-2-(tetrahydro-2H-pyran-3-yl)-2,5-dihydro-3H-pyrazolo[4,3-c]thieno[2,3-e]pyridazin-3-one] |
| 1690 | O=c1c2nn(Cc3ccc(-c4ccc(O)nc4)cc3)c3ncccc3c-2nn1C1CCCOC1 (racemic) [Example 32, (±)-5-{[4-(6-Hydroxypyridin-3-yl)phenyl]methyl}-2-(tetrahydro-2H-pyran-3-yl)-2,5-dihydro-3H-pyrazolo[4,3-c]pyrido[3,2-e]pyridazin-3-one] |
| 96 | O=c1c2nn(Cc3ccc(-n4cccn4)cc3)c3ccsc3c-2nn1C1CCCOC1 (racemic) [Example 37, (±)-5-{[4-(1H-Pyrazol-1-yl)phenyl]methyl}-2-(tetrahydro-2H-pyran-3-yl)-2,5-dihydro-3H-pyrazolo[4,3-c]thieno[2,3-e]pyridazin-3-one] |

From US8293744B2, “Heterocyclic fused cinnoline M1 receptor positive allosteric modulators” (Merck Sharp & Dohme Corp., priority 2009, dated 2012)
